The source made the active and inactive calls.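 How the source made its calls: active means a concentration killing half the fathead minnows in the acute test was determined; inconclusive means some fish died but not half at top dose; inactive means no fish died even at top dose.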
tested on: Fathead minnow (Pimephales promelas) acute toxicity, lethality; assay: DSSTox (EPAFHM) EPA Fathead Minnow Acute Toxicity
Source text: The EPA Fathead Minnow Acute Toxicity database was generated by the U.S. EPA Mid-Continental Ecology Division (MED) for the purpose of developing an expert system to predict acute toxicity from chemical structure based on mode of action considerations. […] A second valuable aspect of this database, from a QSAR modeling perspective, is the inclusion of general mode-of-action (MOA) classifications of acute toxicity response for individual chemicals derived from study results. MOA assignments are biologically based classifications, allowing definition of chemical similarity based upon biological activity instead of organic chemistry functional class as most commonly employed in QSAR study. MOA classifications should strengthen the scientific basis for construction of individual QSARs. However, it is cautioned that the broad MOA categorizations should not be construed to represent a single molecular mechanism; for example, CNS seizure agents and respiratory inhibitors are known to act through a variety of receptors. The EPA Fathead Minnow database and results have been used by EPA MED to build components of the ASTER prediction system, which incorporates MOA-based QSARs for the prediction of aquatic toxicity of environmental and industrial chemicals. Briefly, MOA classifications for individual chemicals, derived from experiments and provided in the EPA Fathead Minnow database, were used to derive substructural rules for assigning a new chemical to an MOA category based solely on chemical structure. Once a new chemical is assigned to an MOA category on this basis, the logP-based QSAR for that MOA category is applied.
The DSSTox EPAFHM database (available from the DSSTox Source URL) includes information pertaining to organic chemical class assignments (ChemClass_FHM), acute toxicity in fathead minnow (LC50_mg), dose-response assessments (LC50_Ratio, ExcessToxicityIndex), behavioral assessments (FishBehaviorTest), joint toxicity MOA evaluations of mixtures (MOA_MixtureTest), and additional MOA evaluation of fish acute toxicity syndrome (FishAcuteToxSyndrome) in rainbow trout. All of these indicators, to the extent available, were considered in the determination of MOA and, additionally, were used to determine a level of confidence in the MOA assignment for each chemical (MOA_Confidence). […] Activity Score is mapping of LOG10 (1/LC50_mmol) activity values spanning activity range [MIN, MAX] onto Integer 1-100 Activity range, where 100 is highest potency and 1 is lowest. If Activity Outcome is "active": Activity Score = 100 * INTEGER[(log10(1/ LC50_mmol) - MIN)/([…])].

| SMILES | Potency [µM] | outcome |
| --- | --- | --- |
| CCOC(C)=O | 2610 |  |
| CCCCCCCCCCCN | 1.23 |  |
| CCC1(c2ccccc2)C(=O)NC(=O)NC1=O | 2080 |  |
| Cc1cc2nc3c(=O)[nH]c(=O)nc-3n(C[C@H](O)[C@H](O)[C@H](O)CO)c2cc1C |  | inactive; moa not determined either due to lack of toxicity at saturation or late test res |
| CCCCCCCCCC(C)=O | 8.81 |  |
| C/C=C/C=C/C | 243 |  |
| NCCN1CCNCC1 | 17000 |  |
| CCOC(=O)C(Cc1ccccc1)C(=O)OCC | 21.7 |  |
| O=C1C[C@@H]2OCC=C3CN4CC[C@]56c7ccccc7N1[C@H]5[C@H]2[C@H]3C[C@H]46 | 1.11 |  |
| c1ccc(N(c2ccccc2)c2ccccc2)cc1 |  | inactive; moa not determined either due to lack of toxicity at saturation or late test res |
| Oc1c(I)cc(I)cc1I | 2.56 |  |
| CCN(CC)C1CCCCC1 | 138 |  |
| CCCCOC(=O)CCCCC(=O)OCCCC | 14.1 |  |
| CCCCCCCCCCCCCN | 0.328 |  |
| CCCCCCCCOC(=O)c1cccc(C(=O)OCCCCCCCC)c1 |  | inactive; moa not determined either due to lack of toxicity at saturation or late test res |
| COc1ccc(OC)cc1 | 847 |  |
| CCCSCCC | 184 |  |
| CCCCCCCCOc1ccccc1NC(C)=O | 1.71 |  |
| Cc1ccccc1C#N | 382 |  |
| CN(C)c1ccc(/C=C/C=O)cc1 | 36.7 |  |
| OCCOc1ccccc1 | 2490 |  |
| O=P(Oc1c(Cl)cccc1Cl)(Oc1c(Cl)cccc1Cl)Oc1c(Cl)cccc1Cl |  | inactive; moa not determined either due to lack of toxicity at saturation or late test res |
| CCOP(=S)(OCC)Oc1ccc(S(C)=O)cc1 (stereo not given) | 140 |  |
| CC(C)c1ccccc1 | 52.6 |  |
| CCCCCCCCBr | 4.34 |  |

| SMILES | Potency [µM] | outcome |
| --- | --- | --- |
| C#CC(O)CCCC (stereo not given) | 15.7 |  |
| N#CCCCCCCC#N | 3880 |  |
| CN(C)c1ccccc1 | 529 |  |
| OCC(Cl)(Cl)Cl | 2000 |  |
| COc1cc(OC)c(OC)cc1C=O | 252 |  |
| CC(=O)CC(C)C | 5210 |  |
| C1CN2CCN1CC2 | 15400 |  |
| CCC(C)=O | 44700 |  |
| CCCCCC(=O)O | 2760 |  |
| CC=O | 767 |  |
| CO |  | active; baseline narcosis |
| CC(C)(c1cc(Cl)c(O)c(Cl)c1)c1cc(Cl)c(O)c(Cl)c1 | 3.63 |  |
| C#CCC(C)O (stereo not given) | 417 |  |
| CCCCOC(C)=O | 155 |  |
| C1=CC2CCC1C2 | 106 |  |
| CC(Cl)(Cl)Cl | 355 |  |
| CCCSCCSCCC | 42.2 |  |
| C=C(C)C(=C)C | 84.1 |  |
| CC(=O)Nc1ccc(O)cc1 | 5390 |  |
| CC(=O)OC(C)(C)C | 2820 |  |
| CCc1ccc(N)cc1 | 602 |  |
| OCC#CCO | 623 |  |
| O=Cc1cc([N+](=O)[O-])ccc1Cl | 20.9 |  |
| CC1CNCC(C)O1 (stereo not given) | 3360 |  |
| Nc1ccc(Cl)c(Cl)c1 | 46.7 |  |

| SMILES | Potency [µM] | outcome |
| --- | --- | --- |
| CCCC=O | 204 |  |
| CNC(=O)Oc1cccc2c1OC(C)(C)C2 | 3.81 |  |
| OCCN1CCOCC1 | 20700 |  |
| CCCC(C)C=O (stereo not given) | 188 |  |
| c1ccc2ccccc2c1 | 47.9 |  |
| NC(=O)c1ccc([N+](=O)[O-])cc1 | 801 |  |
| C=CC(=O)OC1CCCCC1 | 9.6 |  |
| S=c1[nH]c2cc(Cl)ccc2s1 | 15.9 |  |
| CCCCOC(=O)c1ccc(C(=O)OCCCC)cc1 | 2.12 |  |
| Cc1cc(C)c(C#N)c(=O)[nH]1 | 1060 |  |
| c1ccc2occc2c1 | 119 |  |
| O=C(Oc1ccccc1)c1ccccc1C(=O)Oc1ccccc1 | 0.251 |  |
| CCCCCCCO | 297 |  |
| O=C(c1ccccc1)c1ccncc1 | 562 |  |
| C=CCC#N | 2710 |  |
| CCCCCO | 5360 |  |
| CCC(C)c1cc([N+](=O)[O-])cc([N+](=O)[O-])c1O (stereo not given) | 2.23 |  |
| CCCSSCCC | 17 |  |
| Oc1ccc(N=Nc2ccccc2)cc1 | 6 |  |
| CCNCC | 11700 |  |
| O=[N+]([O-])c1ncccc1O | 1190 |  |
| C#CC(C)O (stereo not given) | 167 |  |
| N#CCC#N | 8.48 |  |
| NCCc1ccccn1 |  | inactive; moa not determined either due to lack of toxicity at saturation or late test res |
| ClCC(Cl)CCl | 391 |  |

| SMILES | Potency [µM] | outcome |
| --- | --- | --- |
| CC(C)(C)c1ccc(Oc2cccc(C=O)c2)cc1 | 1.45 |  |
| CCCCO | 23300 |  |
| CC(O)CCl (stereo not given) | 2590 |  |
| O=Cc1cc(Br)ccc1O | 6.46 |  |
| O=CN(c1ccccc1)c1ccccc1 | 154 |  |
| Cc1nc(C)c(C)o1 | 4040 |  |
| CCCCCCO | 956 |  |
| Cc1ccc(C)o1 | 740 |  |
| CCCCCCOC(C)=O | 30.5 |  |
| NC(=O)c1ccccc1O | 736 |  |
| NC(=O)c1ccccc1N | 2900 |  |
| CC(C)C(O)C(C)C | 1400 |  |
| CCOC(=O)c1cccc(N)c1 | 302 |  |
| CCC(=O)O | 49900 |  |
| O=C(/C=C/C=C/c1ccc2c(c1)OCO2)N1CCCCC1 | 27.5 |  |
| Oc1cc(Cl)c(Cl)cc1O | 4.97 |  |
| CCCCCCCCOC(=O)c1ccc(C(=O)OCCCCCCCC)cc1 |  | inactive; moa not determined either due to lack of toxicity at saturation or late test res |
| O=C1c2ccccc2C(=O)c2ccccc21 |  | inactive; moa not determined either due to lack of toxicity at saturation or late test res |
| COC(=O)c1ccc(C(=O)OC)c(N)c1 | 42.7 |  |
| CN(C)Cc1ccccc1 | 280 |  |
| CCOC(=O)C(Cl)C(=O)OCC | 4.88 |  |
| c1ccc(CN2CCNCC2)cc1 | 269 |  |
| CC(=O)C(C)(C)C | 869 |  |
| O=[N+]([O-])c1ccccc1 | 967 |  |
| c1ccc(SSc2ccccc2)cc1 | 0.504 |  |

| SMILES | Potency [µM] | outcome |
| --- | --- | --- |
| Oc1c(Cl)cc(Cl)c(Cl)c1Cl | 4.44 |  |
| CCCCCCCCc1ccc(N)cc1 | 0.584 |  |
| CCCCOc1ccccc1 | 38 |  |
| CCCCC(CC)COC(=O)c1ccccc1C(=O)OCC(CC)CCCC (stereo not given) |  | inactive; moa not determined either due to lack of toxicity at saturation or late test res |
| C#CC(C)(O)C(C)C (stereo not given) | 1830 |  |
| CCOCC | 34500 |  |
| ClC(Cl)Cl | 592 |  |
| c1ccc(CC2=NCCN2)cc1 | 1800 |  |
| Oc1ccccc1-c1ccccc1 | 36.1 |  |
| Clc1ccccc1Cl | 64 |  |
| N#CCCCCC#N | 17900 |  |
| Cc1nnc(N)nc1C | 7670 |  |
| CCC(C)C(C)C=O (stereo not given) | 140 |  |
| O=S(c1ccc(Cl)cc1)c1ccc(Cl)cc1 |  | inactive; moa not determined either due to lack of toxicity at saturation or late test res |
| Cc1ccc(N)cc1 | 1490 |  |
| CCN(CC)CCO | 15200 |  |
| CCCC(C)C1(CC)C(=O)N=C(O)NC1=O (stereo not given) | 199 |  |
| CCCCCCBr | 20.9 |  |
| CCCN(CCC)CCC | 355 |  |
| CCN(CC)C(=O)c1cccc(C)c1 | 575 |  |
| CCOC(=O)c1ccc(N)cc1 | 216 |  |
| CC1(N)CCC(C(C)(C)N)CC1 (stereo not given) | 383 |  |
| CC(=O)C(C)C | 10000 |  |
| CCCCCCCC/C=C\CCCCCCCCO |  | inactive; moa not determined either due to lack of toxicity at saturation or late test res |
| CC(C)[C@H](C(=O)OC(C#N)c1cccc(Oc2ccccc2)c1)c1ccc(OC(F)F)cc1 (stereo not given in full) | 0.000421 |  |

| SMILES | Potency [µM] | outcome |
| --- | --- | --- |
| Oc1ccccc1O | 83.7 |  |
| CC(=O)CCC=C(C)C | 679 |  |
| Cc1cccc(OP(=O)(Oc2cccc(C)c2C)Oc2cccc(C)c2C)c1C |  | inactive; moa not determined either due to lack of toxicity at saturation or late test res |
| CCN1C(=O)CC(=O)N(CC)C1=S | 22500 |  |
| BrCC1CCCCO1 (stereo not given) | 1150 |  |
| CC(C)(O)CCc1ccccc1 | 404 |  |
| CC(N)Cc1ccccc1 (stereo not given) | 78.2 |  |
| CCCCCCCCOC(=O)c1ccccc1C(=O)OCCCCCCCC |  | inactive; moa not determined either due to lack of toxicity at saturation or late test res |
| CC1(C)[C@H]2CC[C@]1(C)C(=O)C2 | 112 |  |
| c1ccc2c(c1)CCO2 | 680 |  |
| Cc1cc(Cl)nc(N)n1 | 982 |  |
| COc1cccc(OC)c1C | 133 |  |
| Cl/C=C/CCl | 2.15 |  |
| CCCCCC(=O)OCC | 61.7 |  |
| Cc1ccc(N)c(Cl)c1 | 254 |  |
| C=CCC1(C(C)CCC)C(=O)N=C(O)NC1=O (stereo not given) | 90.7 |  |
| COc1ccc(C(C)=O)c(O)c1 | 418 |  |
| c1ccc(-c2ccncc2)cc1 | 104 |  |
| O=Cc1c(F)c(F)c(F)c(F)c1F | 5.61 |  |
| O=[N+]([O-])c1ccc(O)cc1C(F)(F)F | 44.1 |  |

— PubChem BioAssay AID1188 (EPA DSSTox, 2008)
